Measured values: patent publication US12208071B2, “Glucagon receptor antagonists” (LIGAND PHARMACEUTICALS INCORPORATED, priority 2018, dated 2025)
Like-named read-outs stand apart in the source and are kept apart here.

Tests used:
[1] = Long-term stability (ICH), 25° C./60% RH; type: physicochemical
Method: Polymorph Form A was manufactured under Good Manufacturing Practices (GMP)-compliant conditions at a scale of 1.26 kg. The container closure for the batch consisted of double-lined low density polyethylene bags placed inside fiberboard drums, and the batch was on ICH stability under storage conditions of 25° C./60% relative humidity (RH) and 40° C./75% RH. Long-term stability data through the 36-month interval and accelerated stability data through the 6-month interval are shown in Tables 2 and 3.
Stability samples were tested according to the protocol (Table 5) and to the same specification as the drug substance. The available stability data for samples stored at 25° C./60% RH and 40° C./75% RH are summarized.

[2] = Log P/D by shake-flask method (1-octanol/buffer, HPLC); type: physicochemical; conditions: for logD: 1-octanol/buffer
Method: First, a sample stock solution of Polymorph Form A (100 mmol/L in DMSO) was prepared. 20 μL each of sample DMSO stock solutions was added into 4 ml-vials, then dispensed into 990 μL of 1-octanol-saturated buffer at varied pH and 990 μL of buffer-saturated 1-octanol, vortexed for 3 min and shaken for 1 hr at […], then centrifuged at 2500 rpm for 2 min to get rid of bubbles in the solutions. Finally, buffer-layer sample and 1-octanol-layer sample were separated, and then buffer-layer sample and 1-octanol-layer sample was injected into HPLC, integrated the chromatography and calculated the sample concentrations ratio in both buffer and 1-octanol phase. The Log P/D result was obtained by following equation: […]
The Log P/D value of Polymorph Form A was acquired by shake-flask method using a HPLC system. Since the concentrations of Polymorph Form A in buffer layer are too low to analyze, based on the comparison of blank and standard solution (S/N=5), 0.05 μmol/L was used in buffer layer to calculate Log D.

Cc1cc(C)c(-c2ccc(NC(=O)[C@H](Cc3ccc(C(=O)NCCS(=O)(=O)[O-])cc3)c3ccc(-c4ccc(C(C)(C)C)cc4)cc3)cc2)c(C)c1.[Na+] [Polymorph Form A, Sodium (R)-2-(4-(2-(4′-(tert-butyl)-[1,1′-biphenyl]-4-yl)-3-oxo-3-((2′,4′,6′-trimethyl-[1,1′-biphenyl]-4-yl)amino)propyl)benzamido)ethane-1-sulfonate]
Chiral purity (area %) ([1]; 25° C./60% RH, 18 months): 99.5 area %
Individual related substance (area %, w/w), RRT 0.46 ([1]; 25° C./60% RH, 18 months): 0.08 area %, w/w
Individual related substance (area %, w/w), RRT 0.64 ([1]; 25° C./60% RH, 18 months): 0.12 area %, w/w
Individual related substance (area %, w/w), RRT 1.20 ([1]; 25° C./60% RH, 18 months): 0.06 area %, w/w
Purity (% area) ([1]; 25° C./60% RH, 18 months): 99.7 % area
Total related substances ([1]; 25° C./60% RH, 18 months): 0.26%
Water content (%) ([1]; 25° C./60% RH, 18 months): 6.9%
Appearance ([1]; 25° C./60% RH, 24 months): White
Assay (anhydrous w/w %) ([1]; 25° C./60% RH, 24 months): 101.6 w/w %
Chiral purity (area %) ([1]; 25° C./60% RH, 24 months): 100.0 area %
Individual related substance (area %, w/w), RRT 0.46 ([1]; 25° C./60% RH, 24 months): 0.08 area %, w/w
Individual related substance (area %, w/w), RRT 0.64 ([1]; 25° C./60% RH, 24 months): 0.12 area %, w/w
Individual related substance (area %, w/w), RRT 1.20 ([1]; 25° C./60% RH, 24 months): 0.07 area %, w/w
Purity (% area) ([1]; 25° C./60% RH, 24 months): 99.7 % area
Total related substances ([1]; 25° C./60% RH, 24 months): 0.27%
Water content (%) ([1]; 25° C./60% RH, 24 months): 7.4%
XRPD ([1]; 25° C./60% RH, 24 months): Same
Appearance ([1]; 25° C./60% RH, 36 months): White
Assay (anhydrous w/w %) ([1]; 25° C./60% RH, 36 months): 101.4 w/w %
Chiral purity (area %) ([1]; 25° C./60% RH, 36 months): 99.8 area %
Individual related substance (area %, w/w), RRT 0.31 ([1]; 25° C./60% RH, 36 months): 0.05 area %, w/w
Individual related substance (area %, w/w), RRT 0.46 ([1]; 25° C./60% RH, 36 months): 0.08 area %, w/w
Individual related substance (area %, w/w), RRT 0.64 ([1]; 25° C./60% RH, 36 months): 0.12 area %, w/w
Individual related substance (area %, w/w), RRT 1.20 ([1]; 25° C./60% RH, 36 months): 0.05 area %, w/w
Purity (% area) ([1]; 25° C./60% RH, 36 months): 99.7 % area
Total related substances ([1]; 25° C./60% RH, 36 months): 0.3%
Water content (%) ([1]; 25° C./60% RH, 36 months): 7.5%
XRPD ([1]; 25° C./60% RH, 36 months): Same
anhydrous assay value ([1]; long-term condition through the 36-month interval): around 101%
changes in assay value, total related substances, physical description, or solid state form (XRPD) ([1]; stored at 25° C./60% RH and 40° C./75% RH): No significant changes
Total related substances ([1]; stored at 25° C./60% RH and 40° C./75% RH, remained constant): around 0.25%
logD ([2]; pH 1.5, read-out: Log D Rep.1): > 4.32
logD ([2]; pH 7.4, read-out: Log D Rep.1): > 4.32
logD ([2]; pH 1.0, read-out: Log D Rep.1): > 4.32
logD ([2]; pH 2.0, read-out: Log D Rep.1): > 4.32
logD ([2]; pH 3.0, read-out: Log D Rep.1): > 4.32
logD ([2]; pH 4.0, read-out: Log D Rep.1): > 4.32
logD ([2]; pH 11.0, read-out: Log D Rep.1): > 4.32
logD ([2]; pH range of 1.0 to 11.0, read-out: Log D values): > 4.32
Log D Average ([2]; pH 1.0): >4.32
Log D Rep.2 ([2]; pH 1.0): >4.32
Log D Average ([2]; pH 1.5): >4.32
Log D Rep.2 ([2]; pH 1.5): >4.32
Log D Average ([2]; pH 2.0): >4.32
Log D Rep.2 ([2]; pH 2.0): >4.32
Log D Average ([2]; pH 3.0): >4.32
Log D Rep.2 ([2]; pH 3.0): >4.32
Log D Average ([2]; pH 4.0): >4.32
Log D Rep.2 ([2]; pH 4.0): >4.32
Log D Average ([2]; pH 7.4): >4.32
Log D Rep.2 ([2]; pH 7.4): >4.32
Log D Average ([2]; pH 11.0): >4.32
Log D Rep.2 ([2]; pH 11.0): >4.32
